Assay results reported in patent publication US20120202847A1, “Novel Tetrahydroisoquinoline Compounds” (priority 2009, published 2012).

Target: T1, DGAT1 enzyme (Homo sapiens, UniProt O75907)
T1 construct: made in house
T1 sequence (O75907 1-488): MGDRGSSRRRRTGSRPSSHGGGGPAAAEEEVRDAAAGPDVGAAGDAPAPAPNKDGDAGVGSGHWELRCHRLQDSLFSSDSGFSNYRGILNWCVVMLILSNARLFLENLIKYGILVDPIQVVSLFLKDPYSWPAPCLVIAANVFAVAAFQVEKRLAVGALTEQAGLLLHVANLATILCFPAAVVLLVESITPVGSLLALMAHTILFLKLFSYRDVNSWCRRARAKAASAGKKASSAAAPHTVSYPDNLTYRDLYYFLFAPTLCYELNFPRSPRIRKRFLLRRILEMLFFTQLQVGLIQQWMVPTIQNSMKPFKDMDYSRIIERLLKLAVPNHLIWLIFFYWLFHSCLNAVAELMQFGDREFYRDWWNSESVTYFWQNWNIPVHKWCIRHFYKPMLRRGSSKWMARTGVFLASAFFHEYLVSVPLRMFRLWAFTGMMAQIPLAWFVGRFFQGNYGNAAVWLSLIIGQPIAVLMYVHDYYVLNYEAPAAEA
Assay: DGAT1 inhibitory activity test
Type: biochemical
Settings: test compound concentration of 0.05 μg/ml; [14C]-oleoyl-CoA, 23° C., 30 minutes; read-out: Inhibitory Rate
Description: (1) Preparation of DGAT1 Enzyme
DGAT1 enzyme was prepared and stored according to the method described in US2007/0249620.
(2) DGAT1 Inhibitory Activity Test
A reaction solution having the following composition was incubated at room temperature (23° C.) for 30 minutes: 175 mM Tris-HCl (pH 8.0), 8 mM MgCl2, 1 mg/ml BSA, 0.3 mM 1,2-dioleoyl-sn-glycerol (10-fold concentration of EtOH solution, 10% added), 10 μM [^14C]-oleoyl-CoA (approximately 50 mCi/mmol), 0.5% Triton X-100, the DGAT1 enzyme (10 μg) obtained in Test Example 1(1), and a test compound or vehicle (DMSO/MeOH, 7:3 solution, 5% added), 50 μl in total. A reaction stop solution […] consisting of isopropanol/1-heptane/water (80:20:2, v/v/v) was added to the reaction solution and stirred. Subsequently, water […] and 1-heptane (100 μl) were added thereto and stirred. The 1-heptane layer […] was spotted onto a TLC plate and developed with a developing solvent consisting of 1-hexane/diethyl ether/acetic acid (85:15:1, v/v/v). The radioactivity of the triglyceride fraction was quantified using BAS2500 Bio Image Analyzer (FUJIFILM) and compared with the control. The inhibitory activity of the test compound was calculated according to the formula shown below. In this context, the radioactivity at no reaction (0 minute incubation) was used as background.
Inhibitory Rate=100−[(Radioactivity of sample supplemented with test compound)−(Background)]/[(Radioactivity of control)−(Background)]×100

Compound | inhibition at 0.05 µg/mL
O=C(O)C[C@H]1CC[C@H](OC(=O)N2CCc3cc(NC(=O)Nc4ccccc4Cl)ccc3C2)CC1 [Example 2, trans-6-[3-(2-chloro-phenyl)-ureido]-3,4-dihydro-1H-isoquinoline-2-carboxylic acid 4-carboxymethyl-cyclohexyl ester] | ≥ 50%
Cc1cc(Cl)ccc1NC(=O)Nc1ccc2c(c1)CCN(C(=O)O[C@H]1CC[C@H](CC(=O)O)CC1)C2 [Example 26] | ≥ 50%
Cc1cccc(NC(=O)Nc2ccc3c(c2)CCN(C(=O)O[C@H]2CC[C@H](CC(=O)O)CC2)C3)c1Cl [Example 27, trans-6-[3-(2-chloro-3-methyl-phenyl)-ureido]-3,4-dihydro-1H-isoquinoline-2-carboxylic acid 4-carboxymethyl-cyclohexyl ester] | ≥ 50%
O=C(O)C[C@H]1CC[C@H](OC(=O)N2CCc3cc(NC(=O)Nc4ccc(Cl)cc4C(F)(F)F)ccc3C2)CC1 [Example 28, trans-6-[3-(4-chloro-2-trifluoromethyl-phenyl)-ureido]-3,4-dihydro-1H-isoquinoline-2-carboxylic acid 4-carboxymethyl-cyclohexyl ester] | ≥ 50%
O=C(O)C[C@H]1CC[C@H](OC(=O)N2CCc3cc(NC(=O)Nc4ccc(C(F)(F)F)cc4Cl)ccc3C2)CC1 [Example 29, trans-6-[3-(2-chloro-4-trifluoromethyl-phenyl)-ureido]-3,4-dihydro-1H-isoquinoline-2-carboxylic acid 4-carboxymethyl-cyclohexyl ester] | ≥ 50%
Cc1ccc(NC(=O)Nc2ccc3c(c2)CCN(C(=O)O[C@H]2CC[C@H](CC(=O)O)CC2)C3)cc1F [Example 30, trans-6-[3-(3-fluoro-4-methyl-phenyl)-ureido]-3,4-dihydro-1H-isoquinoline-2-carboxylic acid 4-carboxymethyl-cyclohexyl ester] | ≥ 50%
O=C(O)C[C@H]1CC[C@H](OC(=O)N2CCc3cc(NC(=O)Nc4cc(F)cc(F)c4)ccc3C2)CC1 [Example 31, trans-6-[3-(3,5-difluoro-phenyl)-ureido]-3,4-dihydro-1H-isoquinoline-2-carboxylic acid 4-carboxymethyl-cyclohexyl ester] | ≥ 50%
O=C(O)C[C@H]1CC[C@H](OC(=O)N2CCc3cc(NC(=O)Nc4ccc(F)c(Cl)c4)ccc3C2)CC1 [Example 32, trans-6-[3-(3-chloro-4-fluoro-phenyl)-ureido]-3,4-dihydro-1H-isoquinoline-2-carboxylic acid 4-carboxymethyl-cyclohexyl ester] | ≥ 50%
Cc1cc(C)cc(NC(=O)Nc2ccc3c(c2)CCN(C(=O)O[C@H]2CC[C@H](CC(=O)O)CC2)C3)c1 [Example 33, trans-6-[3-(3,5-dimethyl-phenyl)-ureido]-3,4-dihydro-1H-isoquinoline-2-carboxylic acid 4-carboxymethyl-cyclohexyl ester] | ≥ 50%
Cc1ccc(NC(=O)Nc2ccc3c(c2)CCN(C(=O)O[C@H]2CC[C@H](CC(=O)O)CC2)C3)cc1Cl [Example 34, trans-6-[3-(3-chloro-4-methyl-phenyl)-ureido]-3,4-dihydro-1H-isoquinoline-2-carboxylic acid 4-carboxymethyl-cyclohexyl ester] | ≥ 50%
Cc1cccc(NC(=O)Nc2ccc3c(c2)CCN(C(=O)O[C@H]2CC[C@H](CC(=O)O)CC2)C3)c1C [Example 35, trans-6-[3-(2,3-dimethyl-phenyl)-ureido]-3,4-dihydro-1H-isoquinoline-2-carboxylic acid 4-carboxymethyl-cyclohexyl ester] | ≥ 50%
Cc1c(Cl)cccc1NC(=O)Nc1ccc2c(c1)CCN(C(=O)O[C@H]1CC[C@H](CC(=O)O)CC1)C2 [Example 36, trans-6-[3-(3-chloro-2-methyl-phenyl)-ureido]-3,4-dihydro-1H-isoquinoline-2-carboxylic acid 4-carboxymethyl-cyclohexyl ester] | ≥ 50%
O=C(O)C[C@H]1CC[C@H](OC(=O)N2CCc3cc(NC(=O)Nc4cccc(Cl)c4Cl)ccc3C2)CC1 [Example 37, trans-6-[3-(2,3-dichloro-phenyl)-ureido]-3,4-dihydro-1H-isoquinoline-2-carboxylic acid 4-carboxymethyl-cyclohexyl ester] | ≥ 50%
Cc1cc(NC(=O)Nc2ccc3c(c2)CCN(C(=O)O[C@H]2CC[C@H](CC(=O)O)CC2)C3)ccc1F [Example 38, trans-6-[3-(4-fluoro-3-methyl-phenyl)-ureido]-3,4-dihydro-1H-isoquinoline-2-carboxylic acid 4-carboxymethyl-cyclohexyl ester] | ≥ 50%
COc1cc(NC(=O)Nc2ccc3c(c2)CCN(C(=O)O[C@H]2CC[C@H](CC(=O)O)CC2)C3)cc(OC)c1 [Example 39, trans-6-[3-(3,5-dimethoxy-phenyl)-ureido]-3,4-dihydro-1H-isoquinoline-2-carboxylic acid 4-carboxymethyl-cyclohexyl ester] | ≥ 50%
O=C(O)C[C@H]1CC[C@H](OC(=O)N2CCc3cc(NC(=O)Nc4ccc(Cl)c(Cl)c4)ccc3C2)CC1 [Example 40, trans-6-[3-(3,4-dichloro-phenyl)-ureido]-3,4-dihydro-1H-isoquinoline-2-carboxylic acid 4-carboxymethyl-cyclohexyl ester] | ≥ 50%
COc1ccc(NC(=O)Nc2ccc3c(c2)CCN(C(=O)O[C@H]2CC[C@H](CC(=O)O)CC2)C3)cc1Cl [Example 41, trans-6-[3-(3-chloro-4-methoxy-phenyl)-ureido]-3,4-dihydro-1H-isoquinoline-2-carboxylic acid 4-carboxymethyl-cyclohexyl ester] | ≥ 50%
COc1cccc(NC(=O)Nc2ccc3c(c2)CCN(C(=O)O[C@H]2CC[C@H](CC(=O)O)CC2)C3)c1F [Example 42, trans-6-[3-(2-fluoro-3-methoxy-phenyl)-ureido]-3,4-dihydro-1H-isoquinoline-2-carboxylic acid 4-carboxymethyl-cyclohexyl ester] | ≥ 50%
O=C(O)C[C@H]1CC[C@H](OC(=O)N2CCc3cc(NC(=O)Nc4cc(Cl)cc(Cl)c4)ccc3C2)CC1 [Example 43, trans-6-[3-(3,5-dichloro-phenyl)-ureido]-3,4-dihydro-1H-isoquinoline-2-carboxylic acid 4-carboxymethyl-cyclohexyl ester] | ≥ 50%
COc1ccc(NC(=O)Nc2ccc3c(c2)CCN(C(=O)O[C@H]2CC[C@H](CC(=O)O)CC2)C3)cc1OC [Example 44, trans-6-[3-(3,4-dimethoxy-phenyl)-ureido]-3,4-dihydro-1H-isoquinoline-2-carboxylic acid 4-carboxymethyl-cyclohexyl ester] | ≥ 50%
COc1ccc(NC(=O)Nc2ccc3c(c2)CCN(C(=O)O[C@H]2CC[C@H](CC(=O)O)CC2)C3)cc1F [Example 45, trans-6-[3-(3-fluoro-4-methoxy-phenyl)-ureido]-3,4-dihydro-1H-isoquinoline-2-carboxylic acid 4-carboxymethyl-cyclohexyl ester] | ≥ 50%
O=C(O)C[C@H]1CC[C@H](OC(=O)N2CCc3cc(NC(=O)Nc4cccc(Cl)c4)ccc3C2)CC1 [Example 46, trans-6-[3-(3-chloro-phenyl)-ureido]-3,4-dihydro-1H-isoquinoline-2-carboxylic acid 4-carboxymethyl-cyclohexyl ester] | ≥ 50%

Test system: C57BL/6N mice
Assay: Feeding suppressant activity on a high-fat diet
Type: in vivo
Settings: male C57BL/6N mice, oral dose of 3 mg/kg; food intake 6 hours after initiation of high-fat diet feeding
Description: Male C57BL/6N mice (7-12 weeks old, body weight: 17-25 g, Charles River Laboratories Japan Inc.) were individually housed and fed on a high-fat diet (fat content: 45 kcal %: Research Diets, Inc. D12451) for 1 week or longer for acclimatization. Based on the food intake during the period, the animals were equally assigned to experimental groups and fasted overnight. Then, a vehicle (0.5% methylcellulose) or each test compound (1 to 10 mg/kg) suspended in vehicle was orally administered (10 mL/kg) to each group. 30 minutes after administration, the animals were fed on a high-fat diet, and the food intake was measured 6 hours after initiation of feeding. The feeding suppressant activity of each test compound was calculated based on the equation shown below.
Feeding suppressant activity(%)=[(Food intake of Vehicle group)−(Food intake of each test compound group)]/[(Food intake of Vehicle group)]×100

Compound | Feeding suppressant activity
O=C(O)C[C@H]1CC[C@H](OC(=O)N2CCc3cc(NC(=O)Nc4ccccc4Cl)ccc3C2)CC1 [Example 2, trans-6-[3-(2-chloro-phenyl)-ureido]-3,4-dihydro-1H-isoquinoline-2-carboxylic acid 4-carboxymethyl-cyclohexyl ester] | 70%
